Source: patent US9695154B2, “Heteroaryl inhibitors of sumo activating enzyme” (MILLENNIUM PHARMACEUTICALS, INC., priority 2013, dated 2017)

Target: T1, recombinant human SAE enzyme (Homo sapiens, UniProt Q9UBT2)
T1 sequence (Q9UBT2 1-640): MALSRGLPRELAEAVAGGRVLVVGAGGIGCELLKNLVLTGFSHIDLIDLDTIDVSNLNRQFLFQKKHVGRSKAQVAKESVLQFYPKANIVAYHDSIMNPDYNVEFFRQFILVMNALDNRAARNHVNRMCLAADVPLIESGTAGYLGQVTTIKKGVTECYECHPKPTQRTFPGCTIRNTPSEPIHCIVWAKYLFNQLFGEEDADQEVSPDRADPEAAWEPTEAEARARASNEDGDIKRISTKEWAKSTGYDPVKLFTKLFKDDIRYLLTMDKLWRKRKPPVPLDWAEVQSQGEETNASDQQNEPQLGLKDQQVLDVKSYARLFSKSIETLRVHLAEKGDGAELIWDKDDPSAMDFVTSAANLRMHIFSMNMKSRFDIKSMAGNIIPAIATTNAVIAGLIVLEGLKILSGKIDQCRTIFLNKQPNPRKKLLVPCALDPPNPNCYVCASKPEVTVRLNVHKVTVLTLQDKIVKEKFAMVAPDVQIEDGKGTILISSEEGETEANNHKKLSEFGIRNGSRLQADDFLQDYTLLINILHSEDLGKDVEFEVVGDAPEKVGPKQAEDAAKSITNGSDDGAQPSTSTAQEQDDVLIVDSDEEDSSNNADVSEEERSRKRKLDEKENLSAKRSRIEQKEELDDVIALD
T1 sequence (Q9UBE0 1-346 partner): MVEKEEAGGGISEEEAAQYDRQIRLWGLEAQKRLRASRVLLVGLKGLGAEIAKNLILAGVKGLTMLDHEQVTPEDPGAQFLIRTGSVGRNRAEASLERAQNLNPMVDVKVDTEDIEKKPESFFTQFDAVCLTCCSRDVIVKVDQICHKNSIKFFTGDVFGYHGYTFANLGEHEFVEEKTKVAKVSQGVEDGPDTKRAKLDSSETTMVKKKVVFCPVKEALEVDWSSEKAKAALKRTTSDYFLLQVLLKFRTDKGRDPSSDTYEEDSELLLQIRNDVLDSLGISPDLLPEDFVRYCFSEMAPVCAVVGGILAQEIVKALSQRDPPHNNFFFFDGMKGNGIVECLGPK
Assay: SAE HTRF Enzyme Assay
Format: biochemical
Details: for IC50: class symbols A-C; for inhibition at 0.111 µM: read-out: Percent Inhibition
Method in brief: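 Reaction with 0.11 nM recombinant human SAE, 0.5 μM ATP, 0.01 μM Ubc9-GST, 0.125 μM Sumo-Flag in HEPES pH 7.5, MgCl2, GSH, BSA, 105 min at 24 °C. Stopped with EDTA/KF buffer carrying Eu-anti-Flag and anti-GST-APC; HTRF read after 2 h; % inhibition or IC50.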

[1] = compound concentration 0.111 μM

SMILES	IC50	inhibition at 0.111 µM [1]	Percent Inhibition (compound concentration 0.111 μM, 0.111 µM)
Cc1cccc(Cn2ccc(C(=O)c3cncnc3N[C@@H]3C[C@H](COS(N)(=O)=O)[C@@H](O)C3)n2)c1 [Compound I-128, {(1R,2S,4R)-2-hydroxy-4-[(5-{[1-(3-methylbenzyl)-1H-pyrazol-3-yl]carbonyl}pyrimidin-4-yl)amino]cyclopentyl}methyl sulfamate]	< 10 nM	98%	
NS(=O)(=O)OC[C@H]1C[C@@H](Nc2ncncc2C(=O)c2ccn(Cc3ccc(C(F)(F)F)o3)c2)[C@@H](F)[C@@H]1O [Compound I-209, [(1R,2R,3R,4R)-3-fluoro-2-hydroxy-4-({5-[(1-{[5-(trifluoromethyl)-2-furyl]methyl}-1H-pyrrol-3-yl)carbonyl]pyrimidin-4-yl}amino)cyclopentyl]methyl sulfamate]	< 10 nM	99%	
NS(=O)(=O)OC[C@H]1C[C@@H](Nc2ncncc2C(=O)c2nn(Cc3ccccc3)cc2Cl)[C@H](O)[C@@H]1O [Compound I-139, [(1R,2R,3S,4R)-4-({5-[(1-benzyl-4-chloro-1H-pyrazol-3-yl)carbonyl]pyrimidin-4-yl}amino)-2,3-dihydroxycyclopentyl]methyl sulfamate]	< 10 nM	86%	
CC(c1cccc(Br)c1)n1ccc(C(=O)c2cncnc2N[C@@H]2C[C@H](COS(N)(=O)=O)[C@@H](O)[C@@H]2F)c1 (single isomer, unassigned) [Compound I-363, [(1R,2R,3R,4R)-4-{[5-({1-[(1S)-1-(3-bromophenyl)ethyl]-1H-pyrrol-3-yl}carbonyl)pyrimidin-4-yl]amino}-3-fluoro-2-hydroxycyolopentyl]methyl sulfamate or [(1R,2R,3R,4R)-4-{[5-({1-[(1R)-1-(3-bromophenyl)ethyl]-1H-pyrrol-3-yl}carbonyl)pyrimidin-4-yl]amino}-3-fluoro-2-hydroxycyclopentyl]methyl sulfamate]	< 10 nM		100%
NS(=O)(=O)OC[C@H]1C[C@@H](Nc2ncncc2C(=O)c2ccn(Cc3c(F)ccc(F)c3F)n2)C[C@@H]1O [Compound I-16, {(1R,2S,4R)-2-hydroxy-4-[(5-{[1-(2,3,6-trifluorobenzyl)-1H-pyrazol-3-yl]carbonyl}pyrimidin-4-yl)amino]cyclopentyl}methyl sulfamate]	< 10 nM	98%	
CC(C)=C(C)n1ccc(C(=O)c2cncnc2N[C@@H]2C[C@H](COS(N)(=O)=O)[C@@H](O)C2)n1 [Compound I-344, {(1R,2S,4R)-2-hydroxy-4-[(5-{[1-(3-methylbut-2-en-2-yl)-1H-pyrazol-3-yl]carbonyl}pyrimidin-4-yl)amino]cyclopentyl}methyl sulfamate]	10 to 100 nM	77%	
NS(=O)(=O)OC[C@H]1C[C@@H](Nc2ncncc2C(=O)c2ccn(Cc3cc(F)cc(F)c3)n2)C[C@@H]1O [Compound I-260, {(1R,2S,4R)-4-[(5-{[1-(3,5-difluorobenzyl)-1H-pyrazol-3-yl]carbonyl}pyrimidin-4-yl)amino]-2-hydroxycyclopentyl}methyl sulfamate]	< 10 nM	91%	
CC(c1ccc(C(F)(F)F)o1)n1ccc(C(=O)c2cncnc2N[C@@H]2C[C@H](COS(N)(=O)=O)[C@@H](O)[C@@H]2F)c1 (single isomer, unassigned) [Compound I-304, [(1R,2R,3R,4R)-3-fluoro-2-hydroxy-4-({5-[(1-{(1S)-1-[5-(trifluoromethyl)-2-furyl]ethyl}-1H-pyrrol-3-yl)carbonyl]pyrimidin-4-yl}amino)cyclopentyl]methyl sulfamate or [(1R,2R,3R,4R)-3-fluoro-2-hydroxy-4-({5-[(1-{(1R)-1-[5-(trifluoromethyl)-2-furyl]ethyl}-1H-pyrrol-3-yl)carbonyl]pyrimidin-4-yl}amino)cyclopentyl]methyl sulfamate]	10 to 100 nM	91%	
NS(=O)(=O)OC[C@H]1C[C@@H](Nc2ncncc2C(=O)c2ccn(Cc3ccc(C(F)(F)F)o3)n2)[C@H](O)[C@@H]1O [Compound I-130, [(1R,2R,3S,4R)-2,3-dihydroxy-4-({5-[(1-{[5-(trifluoromethyl)-2-furyl]methyl}-1H-pyrazol-3-yl)carbonyl]pyrimidin-4-yl}amino)cyclopentyl]methyl sulfamate]	< 10 nM	98%	
Cc1cc(C(=O)c2cncnc2N[C@@H]2C[C@H](COS(N)(=O)=O)[C@@H](O)[C@@H]2F)nn1Cc1ccc(C(F)(F)F)o1 [Compound I-197, [(1R,2R,3R,4R)-3-Fluoro-2-hydroxy-4-({5-[(5-methyl-1-{[5-(trifluoromethyl)-2-furyl]methyl}-1H-pyrazol-3-yl)carbonyl]pyrimidin-4-yl}amino)cyclopentyl]methyl sulfamate]	< 10 nM	99%	
CCC#CCn1ccc(C(=O)c2cncnc2N[C@@H]2C[C@H](COS(N)(=O)=O)[C@@H](O)C2)n1 [Compound I-234, {(1R,2S,4R)-2-hydroxy-4-[(5-{[1-(pent-2-yn-1-yl)-1H-pyrazol-3-yl]carbonyl}pyrimidin-4-yl)amino]cyclopentyl}methyl sulfamate]	10 to 100 nM	91%	
NS(=O)(=O)OC[C@H]1C[C@@H](Nc2ncncc2C(=O)c2ccn(Cc3cc(Cl)ccc3Cl)n2)[C@@H](F)[C@@H]1O [Compound I-307, {(1R,2R,3R,4R)-4-[(5-{[1-(2,5-dichlorobenzyl)-1H-pyrazol-3-yl]carbonyl}pyrimidin-4-yl)amino]-3-fluoro-2-hydroxycyclopentyl}methyl sulfamate]	< 10 nM	98%	
CC#CCn1ccc(C(=O)c2cncnc2N[C@@H]2C[C@H](COS(N)(=O)=O)[C@@H](O)C2)c1 [Compound I-340, {(1R,2S,4R)-4-[(5-{[1-(but-2-yn-1-yl)-1H-pyrrol-3-yl]carbonyl}pyrimidin-4-yl)amino]-2-hydroxycyclopentyl}methyl sulfamate]	< 10 nM	94%	
CC(c1ccc(Cl)o1)n1ccc(C(=O)c2cncnc2N[C@@H]2C[C@H](COS(N)(=O)=O)[C@@H](O)C2)n1 (single isomer, unassigned) [Compound I-354, [(1R,2S,4R)-4-{[5-({1-[(1 S)-1-(5-chloro-2-furyl)ethyl]-1H-pyrazol-3-yl}carbonyl)pyrimidin-4-yl]amino}-2-hydroxycyclopentyl]methyl sulfamate or [(1R,2S,4R)-4-{[5-({1-[(1R)-1-(5-chloro-2-furyl)ethyl]-1H-pyrazol-3-yl}carbonyl)pyrimidin-4-yl]amino}-2-hydroxycyclopentyl]methyl sulfamate]	10 to 100 nM	79%	
NS(=O)(=O)OC[C@H]1C[C@@H](Nc2ncncc2C(=O)c2ccn(CC#CC3CC3)n2)C[C@@H]1O [Compound I-287, {(1R,2S,4R)-4-[(5-{[1-(3-cyclopropylprop-2-yn-1-yl)-1H-pyrazol-3-yl]carbonyl}pyrimidin-4-yl)amino]-2-hydroxycyclopentyl}methyl sulfamate]	< 10 nM	95%	
NS(=O)(=O)OC[C@H]1C[C@@H](Nc2ccncc2C(=O)c2ccn(Cc3cccc(OC(F)(F)F)c3)c2)[C@@H](F)[C@@H]1O [Compound I-132, [(1R,2R,3R,4R)-3-Fluoro-2-hydroxy-4-{[3-({1-[3-(trifluoromethoxy)benzyl]-1H-pyrrol-3-yl}carbonyl)pyridin-4-yl]amino}cyclopentyl]methyl sulfamate]	10 to 100 nM	78%	
NS(=O)(=O)OC[C@H]1C[C@@H](Nc2ncncc2C(=O)c2ccn(Cc3ccc(C(F)(F)F)s3)n2)C[C@@H]1O [Compound I-183, [(1R,2S,4R)-2-hydroxy-4-({5-[(1-{[5-(trifluoromethyl)-2-thienyl]methyl}-1H-pyrazol-3-yl)carbonyl]pyrimidin-4-yl}amino)cyclopentyl]methyl sulfamate]	< 10 nM	96%	
